Test results published in patent US20240277006A1, “ANTIBIOTIC-FREE ANTIMICROBIAL FEED ADDITIVES AND ANTIMICROBIAL COMPOSITIONS” (Sláinte Beoga Teoranta, priority 2018, published 2024).

Test system: E. coli (1103 DSMZ)
Test: Checkerboard assay, composition with antibiotic
Assay type: cell-based
Conditions: composition comprising a source of iodide ions and a source of hydrogen peroxide plus antibiotic
Description: Checkerboard assays were carried out to determine if there is a synergistic antagonistic effect with the addition of an antibiotic to a composition comprising a source of iodide ions and a source of hydrogen peroxide. • E. coli (1103 DSMZ) was used for tests • These tests were carried out in lysogeny broth (lb) • Antibiotics tested were ampicillin and gentamycin • Procedure: • 50 μl antibiotic • 100 μl composition • 150 μl 10^5 cells in LB Results
Cells shaded in dark grey represent sub-inhibitory concentrations where growth prevailed. Bacterial growth was prevented for the remaining cells. […] However, in the presence of both the composition and the antibiotic, the concentrations required to achieve a kill are lower—in other words, the combined MIC is lower. These can be seen by the entries marked with a star (*).

Structure (SMILES) | Effect of the antibiotic in combination with the composition
CC[C@H]1OC(=O)[C@H](C)[C@@H](O[C@H]2C[C@@](C)(OC)[C@@H](O)[C@H](C)O2)[C@H](C)[C@@H](O[C@@H]2O[C@H](C)C[C@H](N(C)C)[C@H]2O)[C@](C)(OC)C[C@@H](C)C(=O)[C@H](C)[C@@H](O)[C@]1(C)O [clarithromycin] | synergistic effect
CC[C@H]1OC(=O)[C@H](C)[C@@H](O[C@H]2C[C@@](C)(OC)[C@@H](O)[C@H](C)O2)[C@H](C)[C@@H](O[C@@H]2O[C@H](C)C[C@H](N(C)C)[C@H]2O)[C@](C)(O)C[C@@H](C)C(=O)[C@H](C)[C@@H](O)[C@]1(C)O [erythromycin] | synergistic effect
